Here are results for 15 compounds from patent US10544144B2, “Fused pyrimidine piperidine cyclic derivative, preparation process and use thereof” (SHANGHAI ALLIST PHARMACEUTICAL AND MEDICAL TECHNOLOGY …, priority 2016, dated 2020).

pIC50: −log10 of the molar value. Where two headings read alike, the source gives them in different places.

Assay [1] relates to Human Acute Myelogenous Leukemia Cell KG-1α (FGFR1 Insertion Mutation). Briefly: MTT proliferation inhibition, KG-1α cells. Type of assay: cell-based. Particulars: 72 hours drug exposure. As to the method:
(§1) The pharmacodynamic action of the compound of the present invention in terms of inhibiting the proliferation of cancer cells may be determined by conventional methods. One preferable evaluation method is MTT (Thiazolyl Blue) cell activity assay, in which the change in optical absorption value generated after the drug has acted on the cancer cells is measured, and the inhibition ratio of a drug against the proliferation of cancer cells is calculated. Inhibition ratio (%)=[(blank control OD−inhibitor OD)/blank control OD]×100%
(§2) Blank control OD: the OD value of the well of normally grew cells without the action of a drug.
(§3) Inhibitor OD: the OD value of the well of cells with the action of the added compounds to be screened.
(§4) The median inhibitory concentration (IC50) value is obtained by the software GraphPad Prism 5.0 by the 4-parameter logistic curve fit calculation. Each experiment is repeated three times, and the average IC50 value for three experiments is used as the final index for the inhibitory ability.
(§5) Proliferation Inhibition Effect on Human Acute Myelogenous Leukemia Cell KG-1α (FGFR1 Insertion Mutation), Human Gastric Cancer Cell KATO-3 (FGFR2 Amplification), Human Multiple Myeloma Cell KMS-11 (FGFR3 Y373C Mutation)
(§6) Cells in the logarithmic phase were inoculated to 96-well culture plates (cell density: 3000/well for KATO-3, 9000/well for KG-1α, 3000/well for KMS-11, cell suspension: 180 μl/well), and cultured at 37° C. under 5% CO2 for 24 hours. After the culturing, the cells adhered to the well walls. Each of compounds was dissolved in DMSO in advance to formulate a 10 mM stock solution. Upon testing, the stock solution was diluted with complete medium to 10 times the target concentration in another 96-cell plate. And then the compound was added at 20 μl/cell in the 96-well plate in which the cells were inoculated, i.e. the target concentration could be reached. The well for each concentration was triplicated, and the blank control was established. Cells continued to be cultured at 37° C. under 5% CO2 for 72 hours. After the drug acted for 72 hours, 20 μl of Thiazolyl Blue, i.e., MTT was added to each of wells. MTT was dissolved in a phosphate buffer solution free of Ca and Mg ions (D-PBSA) to formulate a 0.5% stock solution in advance. The stock solution was filtered and sterilized. Cells continued to be cultured at 37° C. under 5% CO2 for 4 hours. After 4 hours from the addition of MTT, 100 μl of 14% dimethylformamide-sodium dodecyl sulfate (DMF-SDS) was added to and dissolved in each of wells. Cells were cultured at 37° C. for 3-4 hours, and detected for the light density value (OD) at a wavelength of 570 nm. The inhibition rate was calculated based on the collected data.

The subject of assay [2] is Human Gastric Cancer Cell KATO-3 (FGFR2 Amplification). Briefly: MTT proliferation inhibition, KATO-3 cells. It is filed as cell-based. Particulars: for pIC50: KATO3, MTT, 72 hours drug exposure, KATO-3 cells, read-out: KATo-3 (FGFR2 amplification) IC50; for IC50: KATO3, 72 h, read-out: KATo-3 (FGFR2 amplification) IC50 (nM).
Description: The pharmacodynamic action of the compound of the present invention in terms of inhibiting the proliferation of cancer cells may be determined by conventional methods. […] Inhibition ratio (%)=[(blank control OD−inhibitor OD)/blank control OD]×100%
as §2, §3, §4, §5, §6

The subject of assay [3] is Human Multiple Myeloma Cell KMS-11 (FGFR3 Y373C Mutation). In words: MTT proliferation inhibition, KMS-11 cells. It is filed as cell-based. The settings on record: 72 hours drug exposure. The procedure: as §1, §2, §3
The median inhibitory concentration (IC50) value is obtained by the software GraphPad Prism 5.0 by the 4-parameter logistic curve fit calculation. […]
Cells in the logarithmic phase were inoculated to 96-well culture plates (cell density: 3000/well for KATO-3, 9000/well for KG-1α, 3000/well for KMS-11, cell suspension: 180 μl/well), and cultured at 37° C. under 5% CO2 for 24 hours. […] Cells were cultured at 37° C. for 3-4 hours, and detected for the light density value (OD) at a wavelength of 570 nm. The inhibition rate was calculated based on the collected data.

Assay [4] deals with subcutaneously transplanted tumors of human bladder cancer RT112/84. Briefly: Growth of subcutaneously transplanted tumors in RT112/84-bearing nude mice. The settings on record: p.o., 14 days, I-5 15 or 25 mg/kg QD, I-13 50 mg/kg BID, BGJ398 15 mg/kg QD, FIG. 1. It is filed as in vivo, BALB/c nude mice. The text has this:
The pharmacodynamic action of the compound of the present invention in terms of inhibiting the growth of transplantation tumor in animal may be assayed by conventional methods. One preferable evaluation method involves the inhibitory effect on the growth of subcutaneously transplantation tumor of human bladder cancer RT112/84-bearing nude mice. The experimental method is as follows: 5×10^6 human bladder cancer RT112/84 cells are inoculated to nude mice subcutaneously at the right side of the back thereof, and each mouse is inoculated with 0.1 ml. After the tumors grow to 100-150 mm^3 on average, the animals are divided into groups randomly according to the tumor size and the animal weight. […] During the entire experimental process, the animal weight and the tumor size are measured twice per week, so as to observe whether or not the toxic reaction occurs.
The tumor volume is calculated as follows: Tumor volume (mm^3)=0.5×(Tumor major diameter×Tumor minor diameter^2) Body weight change rate (%)=measured body weight/body weight before administration×100%. […]
Cell cultivation: RT112/84 cells were placed in a MEM medium containing 10% fetal bovine serum (FBS) and 1% non-essential amino acid (NEAA), and cultivated in a temperature-constant incubator containing 5% CO2 at 37° C. The cells in exponential growth phase were collected and counted for inoculation. […]

As for `COc1cc(OC)c(Cl)c(N2CCc3nc(Nc4ccc(N5CCC(N(C)C)CC5)nc4)ncc3C2)c1Cl` [Compound I-9, 6-(2,6-dichloro-3,5-dimethoxyphenyl)-N-(6-(4-(dimethylamino)piperidin-1-yl)pyridin-3-yl)-5,6,7,8-tetrahydropyrido[4,3-d]pyrimidin-2-amine], the pIC50 in assay [1] (Homo sapiens) is 7.92; in assay [2] it was 7.68; in assay [3] (Homo sapiens) it was 6.70.

`COc1cc(OC)c(Cl)c(N2CCc3nc(Nc4ccc(N5CCN(CCN(C)C)CC5)cc4)ncc3C2)c1Cl` [Compound I-4, 6-(2,6-dichloro-3,5-dimethoxyphenyl)-N-(4-(4-(2-(dimethylamino)ethyl)piperazin-1-yl)phenyl)-5,6,7,8-tetrahydropyrido[4,3-d]pyrimidin-2-amine] showed a pIC50 in assay [1] (Homo sapiens) of 8.70. Moreover, the IC50 in assay [2] worked out at 30 nM.

AZD4547 [reference compound]: the pIC50 in assay [1] was 8.15; in assay [3], 6.70.

Turning to `COc1cc(OC)c(Cl)c(N2CCc3nc(Nc4ccc(N5CCN(CCO)CC5)nc4)ncc3C2)c1Cl` [Compound I-14, 2-(4-(5-(6-(2,6-dichloro-3,5-dimethoxyphenyl)-5,6,7,8-tetrahydropyrido[4,3-d]pyrimidin-2-ylamino)pyridin-2-yl)piperazin-1-yl)ethanol], the results for the pIC50 in assay [1] (Homo sapiens) and in assay [2] were 7.82 and 7.64, respectively.

Regarding `CCN1CCN(c2ccc(Nc3ncc4c(n3)CCN(c3c(Cl)c(OC)cc(OC)c3Cl)C4)cc2OC)CC1` [Compound I-10, 6-(2,6-dichloro-3,5-dimethoxyphenyl)-N-(4-(4-ethylpiperazin-1-yl)-3-methoxyphenyl)-5,6,7,8-tetrahydropyrido[4,3-d]pyrimidin-2-amine], the negative-log IC50 (pIC50) in assay [1] (Homo sapiens) is 7.62; in assay [2], 8.15.

For `COc1cc(OC)c(Cl)c(N2CCc3nc(Nc4ccc(N5CCC(N(C)C)CC5)cc4)ncc3C2)c1F` [Compound I-15, 6-(2-fluoro-6-chloro-3,5-dimethoxyphenyl)-N-(4-(4-(dimethylamino)piperidin-1-yl)phenyl)-5,6,7,8-tetrahydropyrido[4,3-d]pyrimidin-2-amine], the pIC50 in assay [1] (Homo sapiens) was 8.70; in assay [2] it was 8.52.

For `CNC(=O)c1cc(OC)c(Cl)c(N2CCc3nc(Nc4ccc(N5CCC(N(C)C)CC5)cc4)ncc3C2)c1` [Compound I-13], the negative-log IC50 (pIC50) in assay [1] (Homo sapiens) was 8.22; in assay [2], 8.52.

In the case of `COc1cc(OC)c(Cl)c(N2CCc3nc(Nc4ccc(N5CCC(N(C)C)CC5)cc4)ncc3C2)c1Cl` [Compound I-5, 6-(2,6-dichloro-3,5-dimethoxyphenyl)-N-(4-(4-(dimethylamino)piperidin-1-yl)phenyl)-5,6,7,8-tetrahydropyrido[4,3-d]pyrimidin-2-amine], the pIC50 in assay [1] (Homo sapiens) is 8.70. Moreover, the half-maximal inhibitory concentration (IC50) in assay [2] was 4 nM. Moreover, the “inhibition effect on the growth of subcutaneously transplanted tumors (tumor volume)” value in assay [4] is on record as “better inhibition effect than BGJ398”.

In assay [1] (Homo sapiens), `COc1cc(OC)c(Cl)c(N2CCc3nc(Nc4ccc(N5CCN(CC(F)(F)F)CC5)cc4)ncc3C2)c1Cl` [Compound I-2, 6-(2,6-dichloro-3,5-dimethoxyphenyl)-N-(4-(4-(2,2,2-trifluoroethyl)piperazin-1-yl)phenyl)-5,6,7,8-tetrahydropyrido[4,3-d]pyrimidin-2-amine] gave a pIC50 of 8.15. Moreover, in assay [2], the 50% inhibitory concentration (IC50) was 45 nM.

In the case of `CCN1CCN(c2ccc(Nc3ncc4c(n3)CCN(c3c(Cl)c(OC)cc(OC)c3Cl)C4)cn2)CC1` [Compound I-8, 6-(2,6-dichloro-3,5-dimethoxyphenyl)-N-(6-(4-ethylpiperazin-1-yl)pyridin-3-yl)-5,6,7,8-tetrahydropyrido[4,3-d]pyrimidin-2-amine], the values for the pIC50 in assay [1] (Homo sapiens) and in assay [2] were 8.30 and 8.40, respectively.

For the compound `CCN1CCN(c2ccc(Nc3ncc4c(n3)CCN(c3cc(C(=O)NC)cc(OC)c3Cl)C4)cn2)CC1` [Compound I-11, 4-chloro-3-(2-(6-(4-ethylpiperazin-1-yl)pyridin-3-ylamino)-7,8dihydropyrido[4,3-d]pyrimidin-6(5H)-yl)-5-methoxy-N-methylbenzamide], the pIC50 in assay [1] (Homo sapiens) was 8.10; in assay [2], 8.40.

`COc1cc(OC)c(Cl)c(N2CCc3nc(Nc4ccc(N5CCN(C6CC6)CC5)cc4)ncc3C2)c1Cl` [Compound I-6, 6-(2,6-dichloro-3,5-dimethoxyphenyl)-N-(4-(4-cyclopropylpiperazin-1-yl)phenyl)-5,6,7,8-tetrahydropyrido[4,3-d]pyrimidin-2-amine] gave a negative logarithm of the IC50 (pIC50) in assay [1] (Homo sapiens) of 8.52. The IC50 in assay [2] came out at 11 nM.

As for `COc1cc(OC)c(Cl)c(N2CCc3nc(Nc4ccc(N5CCN(CCO)CC5)cc4)ncc3C2)c1Cl` [Compound I-3, 2-(4-(4-(6-(2,6-dichloro-3,5-dimethoxyphenyl)-5,6,7,8-tetrahydropyrido[4,3-d]pyrimidin-2-ylamino)phenyl)piperazin-1-yl)ethanol], in assay [1] (Homo sapiens), the pIC50 is 9.00. Moreover, the IC50 in assay [2] was found to be 8 nM.

Turning to `CCN1CCN(c2ccc(Nc3ncc4c(n3)CCN(c3c(Cl)c(OC)cc(OC)c3Cl)C4)cc2)C(=O)C1` [Compound I-7], the pIC50 in assay [1] (Homo sapiens) was 7.74; in assay [2], 8.22.

As to `CCN1CCN(c2ccc(Nc3ncc4c(n3)CCN(c3c(Cl)c(OC)cc(OC)c3Cl)C4)cc2)CC1` [Compound I-1, 6-(2,6-dichloro-3,5-dimethoxyphenyl)-N-(4-(4-ethylpiperazin-1-yl)phenyl)-5,6,7,8-tetrahydropyrido[4,3-d]pyrimidin-2-amine], the results for the pIC50 in assay [1] (Homo sapiens) and in assay [2] were 8.30 and 7.92, respectively.
